Assays:
[1] = system: PDE4 (from U937 cells); assay: PDE4 (U937 cell-derived) enzyme assay; assay type: biochemical, human; details: 1 µM cAMP
Method: PDE4 enzyme was purified from U937 human monocytic cells by gel filtration chromatography as previously described (Muller et al., 1998, Bioorg. & Med. Chem. Lett. 8:2669-2674). Phosphodiesterase reactions were carried out in 50 mM Tris HCl pH 7.5, 5 mM MgCl2, 1 µM cAMP, 10 nM [^3H]-cAMP for 30 min at 30°C, terminated by boiling, treated with 1 mg/ml snake venom, and separated using AG-1XS ion exchange resin (BioRad) as described (Muller et al., 1998, Bioorg. & Med. Chem. Lett. 8:2669-2674). Reactions consumed less than 15% of available substrate. Table 1. PDE Specificity

[2] = system: IFN-γ; assay: SEB-induced IFN-γ production in human PBMC; assay type: cell-based; details: 100 ng/ml SEB
[3] = system: cAMP; assay: PGE2-induced cAMP elevation in human PBMC; assay type: cell-based; details: PGE2 (10µM)
Method: Prostaglandin E2 (PGE2) binds to prostanoid receptors on monocytes, T cells and other leukocytes and consequently elevates intracellular cAMP levels, resulting in inhibition of cellular responses. The combination of PGE2 and a PDE4 inhibitor synergistically elevates cAMP levels in these cell types, and the elevation of cAMP in PBMC caused by PDE4 inhibitors in the presence of PGE2 is proportional to the inhibitory activity of that PDE4 inhibitor. Intracellular cAMP was measured in human PBMC as follows. PBMC were isolated as described above and plated in 96-well plates at 1 x 10^6 cells per well in RPMI-1640. The cells were pre-treated with compounds at 100, 10, 1, 0.1, 0.01, and 0 µM in a final concentration of 2% DMSO in duplicate at 37°C in a humidified incubator at 5% CO2 for one hour. The cells were then stimulated with PGE2 (10µM) (Sigma) for 1h. The cells were lysed with HCl, 0.1 N final concentration to inhibit phosphodiesterase activity and the plates were frozen at -20°C. The cAMP produced was measured using cAMP (low pH) Immunoassay kit (R&D Systems).

[4] = Aqueous equilibrium solubility in pH 7.4 buffer; assay type: physicochemical; details: pH 7.4
Method: Equilibrium solubilities were measured in pH 7.4 aqueous buffer. The pH 7.4 buffer was prepared by adjusting the pH of a 0.07 M NaH2PO4 solution to 7.4 with 10 N NaOH. The ionic strength of the solution was 0.15. At least 1 mg of powder was combined with 1 ml of buffer to make >1 mg/ml mixture. These samples were shaken for >2 hours and left to stand overnight at room temperature. The samples were then filtered through a 0.45-µm Nylon syringe filter that was first saturated with the sample. The filtrate was sampled twice, consecutively. The filtrate was assayed by HPLC against standards prepared in 50% methanol.

[5] = system: LPS-induced pulmonary neutrophilia; assay: LPS-induced lung neutrophilia ferret model; assay type: in vivo, ferrets (Mustela Pulorius Euro); details: Mustela putorius, po; conscious ferret, p.o.; read-out: Inhibition of LPS-induced neutrophilia (ED50 mg/kg)
Source text: The conscious ferret model has been used to investigate anti-inflammatory, emetic and behavioral effects of PDE4 inhibitors when administered by the oral (p.o.) route. From these experiments, a therapeutic index (TI) for each PDE4 inhibitor may be determined. The TI has been calculated by dividing the threshold dose for causing emetic episodes and behavioral changes by the anti-inflammatory dose (dose that causes 50% inhibition of the LPS-induced neutrophilia).
Male ferrets (Mustela Pulorius Euro, weighing 1 - 2 kg). Ferrets were supplied either by Bury Green Farm or Misay Consultancy. Following transport, the animals were allowed to acclimatize in the holding rooms for a period of not less than seven days. The diet comprised SDS diet C pelleted food given ad lib with Whiskers™ cat food given three times per week. Water was pasteurized animal grade drinking water and was changed daily. […]
Thirty minutes after p.o. dosing with compound or vehicle control, the ferrets were placed into sealed Perspex containers and exposed to an aerosol of LPS (100 µg/ml) for 10 minutes. […] Observation continued for a period of at least 2.5 hours post p.o. dosing and emetic episodes and behavioral changes were recorded. […]
The bronchoalveolar lavage (BAL) samples were centrifuged at 1,500 rpm for 5 minutes. […] From this, the total number of neutrophils in the BAL was determined. […]

Compound: CCOc1cc(C(CS(C)(=O)=O)N2C(=O)c3cccc(NC(C)=O)c3C2=O)ccc1OC (single isomer, unassigned; (+)) [Compound A, (+)-2-[1-(3-ethoxy-4-methoxyphenyl)-2-methylsulfonylethyl]-4-acetylaminoisoindoline-1,3-dione]
- IC50 [1]: 0.0735 µM
- IC50 [2]: 0.046 µM
- EC50 [3]: 1.58 µM
- Measured solubility [4]: 12 µg/mL
- greater aqueous solubility than the racemic mixture [4]: 3.5 fold
- ED50 [5]: 0.8 mg/kg
